From publication PMC12210654, “Palazestrant, a novel oral Complete Estrogen Receptor Antagonist (CERAN) and Selective Estrogen Receptor Degrader (SERD), in patients with ER+/HER2− advanced or metastatic breast cancer: phase 1/2 study results” (Breast Cancer Research : BCR, 2025)

How the values were obtained:
[1] = system: ESR1; assay: ESR1 mutations in cell-free DNA (SafeSEQ Breast Cancer Panel); format: in vivo, human
Procedure: All immunohistochemistry analyses from tumor samples were performed at ICON Central Laboratories (Farmingdale, NY, USA) using the Ventana® BenchMark ULTRA™ automated staining instrument (Oro Valley, AZ, USA). Positive- and negative-control tissue and negative reagent controls were run for each marker, as well as low-ER controls for each run. Estrogen receptor levels were estimated as the number of positive tumor nuclei divided by the total number of tumor nuclei, expressed as a percentage for each receptor type. Evaluation of Ki67 was performed in accordance with Ki67 Working Group recommendations: 1) only nuclear staining was assessed as positive; 2) in cases of tumor heterogeneity (hot spots), 2 counts were performed and the average was reported; and 3) lymphocyte-rich areas were avoided when possible. Presence of activating ESR1 mutations (amino acid regions 370–381, 460–473, and 529–538) and their mutant allele fractions (MAFs) were determined in cell-free DNA (cfDNA), collected at baseline and at 8 weeks on treatment using the SafeSEQ Breast Cancer Panel (Sysmex Inostics, Baltimore, MD, USA).
In patients who underwent biomarker testing, samples collected on cycle 3 day 1 of treatment across all dose levels were compared to baseline samples to assess changes during treatment. […] Additionally, the number of endocrine resistance-associated ESR1-variant mutations (Y537S, Y537 N/C, L536H/P/R, and D538G) were reduced from 106 mutations detected at baseline (in 64 patients with detectable mutations at baseline) to 37 mutations (in 21 patients) after 2 treatment cycles of palazestrant treatment (Supplemental Fig. 2 C).
14 Supplemental Figure 2. Biomarker analyses following treatment with palazestrant.
15 Quantitative analyses were performed on patient tissue and blood samples collected at baseline and
16 cycle 3 day 1 of palazestrant treatment.
17 decreased after treatment with palazestrant compared (P=.041). B) ER Allred scores were decreased
18 after treatment with palazestrant (P=.13). C) Sankey diagram showing the number of mutations detected
19 in cfDNA for each ESR1 variant before and after treatment with palazestrant. N = number of patients in
20 the analysis; n= number of mutations.
21 49 (77%) had at least one mutation become “Not detected” at C3D1.
22 ESR1 mutation detected at C1D1, 43 (67%) had all their detected mutation(s) become “Not detected” at […]

[2] = system: ER; set-up: method as in PMID 38102750; conditions: cited from earlier work
[3] = of 64 patients with an ESR1 mutation detected at C1D1

In the case of CCCN1CC(Oc2ccc([C@@H]3c4[nH]c5ccccc5c4C[C@@H](C)N3CC(C)(C)F)cc2)C1 [palazestrant, Palazestrant], the “patients with detectable ESR1-variant mutations on treatment” value ([1]; after 2 treatment cycles, 64 patients at baseline) is reported as 21 patients, the “number of endocrine resistance-associated ESR1-variant mutations detected on treatment” value ([1]; after 2 treatment cycles, 106 mutations at baseline) is reported as 37 mutations and the “patients with all detected ESR1 mutation(s) become Not detected at C3D1” value [1, 3] is reported as 67%. The “patients with at least one ESR1 mutation become Not detected at C3D1” value [1, 3] was 77% and the “potency in vitro relative to imlunestrant” value [2] was “greater potency in vitro”.
